Several values for one entry are separate records, joined by “and”; a condition that tells them apart may be missing. Equal entries are not always repeated. After the bases stand the sugars from the 5' end (letter, count) and the backbone: PS all phosphorothioate, else s phosphorothioate and o phosphodiester by linkage. Methylation of C is not given here. e = 2'-O-(2-methoxyethyl) (MOE); k = constrained ethyl (cEt); d = 2'-deoxy (DNA)

The target in the first data set is MALAT1. The conditions noted are these: ASO, A431, 0.005 µM.
Consider TAATGCTAGTCCTCAG (sugars k3 d10 k3, PS), for which the target mRNA inhibition is 38%. The same measure, in the same setting: the same measure for TACTATAGCATCTGTG (sugars k3 d10 k3, PS): -7%; for CCCCGTCCTGGAAACC (sugars k3 d10 k3, PS): 21%; for CATATTTTAAACGGGT (sugars k3 d10 k3, PS): -16%. Consider GAGAAAGTGCCATGGT (sugars k3 d10 k3, PS), for which the target mRNA inhibition stood at 26%. The same measure, in the same setting: the result for AGATTCACTGAATCCA (sugars k3 d10 k3, PS) reads 6%; that for TCTTAGTAACCTATTG (sugars k3 d10 k3, PS), 19%; that for TACGCAACTGAGCCCC (sugars k3 d10 k3, PS), 0%.

Take ACTTATCCCTAACATG (sugars k3 d10 k3, PS): the target mRNA inhibition is 13%. Same read-out and setting: the result for GGTGAATTCAACTGGA (sugars k3 d10 k3, PS) reads 49%; that for CCCTTCTAGCTTCAAG (sugars k3 d10 k3, PS), 38%; that for TGGAATCCTGTCTGCT (sugars k3 d10 k3, PS), 17%. Still for that read-out and setting: the same measure for CAGTTACACATCCAAA (sugars k3 d10 k3, PS): 45%.

For the sequence TCCTCTACGCACAACG (sugars k3 d10 k3, PS), the target mRNA inhibition was found to be 11%.

With AACTGGAAGCTCCTTC (sugars k3 d10 k3, PS), the target mRNA inhibition was found to be 17%. Same read-out and setting: the result for TAAGAACTCCACAGCT (sugars k3 d10 k3, PS) reads 41%. Same read-out and setting: the result for TGAGGCAAGTCCTCAT (sugars k3 d10 k3, PS) reads 5%. In the case of GAATTAAGACCAAGGG (sugars k3 d10 k3, PS), the target mRNA inhibition came to 36%. Still for that read-out and setting: the result for ACTACCATATCCAAAC (sugars k3 d10 k3, PS) reads 27%; that for CCTCACGGATTTTTAC (sugars k3 d10 k3, PS), -1%; that for TGCAGGGACGGTTGAG (sugars k3 d10 k3, PS), -22%. Still for that read-out and setting: the result for TTCCAGGATTAATGTA (sugars k3 d10 k3, PS) reads 37%.

With AATCTAAAAGCATTGC (sugars k3 d10 k3, PS), the target mRNA inhibition came out at 30%.

CAGGGCTTTACTTTCC (sugars k3 d10 k3, PS): the target mRNA inhibition was 2%.

As to GGTTATAGCTTGACAA (sugars k3 d10 k3, PS), the target mRNA inhibition was 78% and 95%.

With ACAAAACCCCCGGAAC (sugars k3 d10 k3, PS), the target mRNA inhibition was -153%. On the same count and under the same terms, the same measure for ATAAGGTCAATAGTGT (sugars k3 d10 k3, PS): 38%; for AGTTAATGTCAGCCCA (sugars k3 d10 k3, PS): 34%; for CCTCAGTTACACATCC (sugars k3 d10 k3, PS): 49%. Take ACCTCTTAAAGCACTT (sugars k3 d10 k3, PS): the target mRNA inhibition amounted to 18%. TCCCATAATTGTAGTT (sugars k3 d10 k3, PS): the target mRNA inhibition stood at 27%. As to AGGATTCTAGACAGAC (sugars k3 d10 k3, PS), the target mRNA inhibition is 72% and 71%. Take GCCTTTAGGATTCTAG (sugars k3 d10 k3, PS): the target mRNA inhibition amounted to 30%.

In the case of GTGTGATAGTTCAGGG (sugars k3 d10 k3, PS), the target mRNA inhibition worked out at 8%. With AGAAGAATCCCCCCCA (sugars k3 d10 k3, PS), the target mRNA inhibition is -13%. Turning to CCCTCTAAGAGACATT (sugars k3 d10 k3, PS), the target mRNA inhibition is 32%. On to CATTGGGAGTTACTTG (sugars k3 d10 k3, PS), for which the target mRNA inhibition was 32%. Same read-out and setting: the result for CCTTCCGCCGCCTCTT (sugars k3 d10 k3, PS) reads 3%; that for CTTCACCACGAACTGC (sugars k3 d10 k3, PS), 43%. TATAATAGAGCTACTT (sugars k3 d10 k3, PS): the target mRNA inhibition is 15%. Same read-out and setting: the result for CTCCAGCATAAAGCTG (sugars k3 d10 k3, PS) reads 12%; that for TAATTACTCTTGATCT (sugars k3 d10 k3, PS), 48% and 72%. Same read-out and setting: the result for AGTTACATGTTCCCAC (sugars k3 d10 k3, PS) reads 33%; that for TGCCTACCGCACAGCT (sugars k3 d10 k3, PS), 19%; that for ATGCTAGTCCTCAGGA (sugars k3 d10 k3, PS), -20%.

In the case of ACTAAAGGCTTCAGTC (sugars k3 d10 k3, PS), the target mRNA inhibition turned out to be 26%. In the case of TCTGTTATGTTCACCT (sugars k3 d10 k3, PS), the target mRNA inhibition was 52%. As for AGTGTAAAACATTGCC (sugars k3 d10 k3, PS), the target mRNA inhibition was 7%. On the same count and under the same terms, the same measure for TTCCATTACGCAACTG (sugars k3 d10 k3, PS): -21%; for GATCACCTTCCGCCGC (sugars k3 d10 k3, PS): 6%. As for GCCTTTTCTAACATAG (sugars k3 d10 k3, PS), the target mRNA inhibition was -1%. On the same count and under the same terms, the same measure for CATTCCTTCGGATGCT (sugars k3 d10 k3, PS): 38%; for AATCCCTTCAGGATCA (sugars k3 d10 k3, PS): 8%.

For TTAAAGTGTGATAGTT (sugars k3 d10 k3, PS), the target mRNA inhibition came to 6%. Same read-out and setting: the result for AATGGACATCTCTTCC (sugars k3 d10 k3, PS) reads 27%; that for AACTGATCTGACTTTG (sugars k3 d10 k3, PS), 34%; that for ACAACAATTTAGAGCT (sugars k3 d10 k3, PS), 11%. Still for that read-out and setting: the result for CCCCAATGGAGGTATG (sugars k3 d10 k3, PS) reads 37%; that for CTCGGGCTGCAGGCTG (sugars k3 d10 k3, PS), 19%; that for GAACTCCACAGCTCTT (sugars k3 d10 k3, PS), 33%. Same read-out and setting: the result for TAATAGCAGCGGGATC (sugars k3 d10 k3, PS) reads 30%. For GTGAATTCAACTGGAA (sugars k3 d10 k3, PS), the target mRNA inhibition was determined as 50%.

Consider AAACTTATCTGCGGTT (sugars k3 d10 k3, PS), for which the target mRNA inhibition came out at 19%.

As to CGTTAAAAACTTAACG (sugars k3 d10 k3, PS), the target mRNA inhibition amounted to 13%. With AAGAACTAGTGGTTCC (sugars k3 d10 k3, PS), the target mRNA inhibition amounted to 30%.

Take ACCACGAACTGCTGCT (sugars k3 d10 k3, PS): the target mRNA inhibition turned out to be 52%. On the same count and under the same terms, the same measure for CTCAGTCCTAGCTTCA (sugars k3 d10 k3, PS): 42%; for AAATTTCCTTAGTTGG (sugars k3 d10 k3, PS): 54%.

Take CCCACAGGAACAAGTC (sugars k3 d10 k3, PS): the target mRNA inhibition worked out at 14%. The same measure, in the same setting: the same measure for CATTGCCTCTTCATTG (sugars k3 d10 k3, PS): 36%; for CCTACAACACCCGGAA (sugars k3 d10 k3, PS): 0%; for AAGATTTGAGCTGCAA (sugars k3 d10 k3, PS): -1%. On the same count and under the same terms, the result for GACTTGGCAGTCTGCC (sugars k3 d10 k3, PS) reads 10%; that for CTCGATGGAAAAATTT (sugars k3 d10 k3, PS), 8%. For the sequence CAATGCCTACCGCACA (sugars k3 d10 k3, PS), the target mRNA inhibition is 16%. Same read-out and setting: the same measure for AATCATTGGGAGTTAC (sugars k3 d10 k3, PS): 24%; for CTCAGGGTTATGCTTA (sugars k3 d10 k3, PS): 40%; for ATACTGAAAACTCCCC (sugars k3 d10 k3, PS): 14%. Regarding CATTCAAGCTGAACTA (sugars k3 d10 k3, PS), the target mRNA inhibition worked out at 39%.

Another data set has as its target APOL1. The conditions noted are these: ASO, A431, 0.0156 µM.
Consider “GAACGCAATGCTGACT (sugars k2 d4 e3 k2 d5, PS)”, for which the target mRNA inhibition is 20%.

Staying with this data set, now noted: ASO, A431, 0.0625 µM.
Regarding ACTTTTTCACCATAGC (sugars k4 d9 k3, PS), the target mRNA inhibition amounted to 53%. On the same count and under the same terms, the same measure for GCAGTTTCATATTCAC (sugars k4 d9 k3, PS): 75%; for ATTCTATTGGGCCTCA (sugars k4 d9 k3, PS): 28%. On the same count and under the same terms, the same measure for GCTATGGAAATGCCAA (sugars k4 d9 k3, PS): 28%; for GAGTCATTTGCTAGGT (sugars k4 d9 k3, PS): 78%. Still for that read-out and setting: the same measure for “GAACGCAATGCTGACT (sugars k2 d4 e3 k2 d5, PS)”: 42%.

Staying with this data set, now noted: ASO, A431, 0.25 µM.
On to ACTTTTTCACCATAGC (sugars k4 d9 k3, PS), for which the target mRNA inhibition turned out to be 82%.

Regarding GCAGTTTCATATTCAC (sugars k4 d9 k3, PS), the target mRNA inhibition turned out to be 92%. ATTCTATTGGGCCTCA (sugars k4 d9 k3, PS): the target mRNA inhibition stood at 62%. For GCTATGGAAATGCCAA (sugars k4 d9 k3, PS), the target mRNA inhibition was determined as 61%. The same measure, in the same setting: the same measure for GAGTCATTTGCTAGGT (sugars k4 d9 k3, PS): 89%.

As for “GAACGCAATGCTGACT (sugars k2 d4 e3 k2 d5, PS)”, the target mRNA inhibition amounted to 77%.

The same data set, now with this note: ASO, A431, 1 µM.
As for ACTTTTTCACCATAGC (sugars k4 d9 k3, PS), the target mRNA inhibition came to 93%. Still for that read-out and setting: the result for GCAGTTTCATATTCAC (sugars k4 d9 k3, PS) reads 98%; that for ATTCTATTGGGCCTCA (sugars k4 d9 k3, PS), 86%; that for GCTATGGAAATGCCAA (sugars k4 d9 k3, PS), 81%. On to GAGTCATTTGCTAGGT (sugars k4 d9 k3, PS), for which the target mRNA inhibition came to 92%.

Take “GAACGCAATGCTGACT (sugars k2 d4 e3 k2 d5, PS)”: the target mRNA inhibition stood at 92%.

The same data set, now with this note: ASO, A431, 2 µM.
With “AAGATTGGCTCTGGCT (sugars kkddddkekekddddd, PS)”, the target mRNA inhibition amounted to 37%. With “ACGCAATGCTGACTTG (sugars kkkddddkekekdddd, PS)”, the target mRNA inhibition came to 71%. Same read-out and setting: the same measure for “AATTCTATTAGAGGGC (sugars kkddddkekekddddd, PS)”: 56%; for “GCTAATTTTCTGACTG (sugars kdddddkekekddddd, PS)”: 98%; for “GAACGCAATGCTGACT (sugars k2 d4 e3 k2 d5, PS)”: 95%. With “ACACATCATTGGGTTA (sugars kdddddkekekddddd, PS)”, the target mRNA inhibition was 47%.

The record behind these values is the OligoGym collection.
